{"source": "patent US9339463B2", "about": "“Micronized opioid compositions having a specific particle size distribution” (priority 2007, dated 2016)", "format_in_all_cases": "physicochemical", "key": {"[1]": {"experiment": "Physical stability on storage: particle size (Dv90) by laser diffraction"}, "[2]": {"experiment": "Particle size by optical microscopy, number % undersize", "conditions": "mean diameter", "experimental": "(§1) As a secondary analytical method, the micronized and the non-micronized oxycodone analyzed by laser diffraction with results shown in Table 1, were analyzed by optical microscopy to evaluate particle size and the results are shown in Table 2. Sample aliquots (˜50 mg for micronized and ˜225 mg for non-micronized) were dispersed in 10 ml of sunflower oil and viewed on a Nikon microscope equipped with a 10× objective. Particle size (mean diameter) was determined using Image Pro® Plus software and expressed as a number % undersize. The particle size values determined by optical microscopy as shown in Table 2 are consistent with the laser diffraction particle size data shown in Table 1."}, "[3]": {"experiment": "Physical stability on storage: microscopy", "experimental": "as §1\n(§2) Samples of Example 2 and additional samples comprising micronized and non-micronized oxycodone useful for exemplary dosage forms are tested for their chemical stability and physical stability. Based on a comparison of stability data from micronized and non-micronized samples stored at both 25° C./60% RH and 40 C.°/75% RH, no differences are observed in the impurity profile through three months of study as shown in Tables 4 and 5 for exemplary lots. The impurities analyzed include (HOXY), 14-Hydroxycodeinone; (DHOXYN), 7,8-Dihydro-8,14-Dihydroxycodeinone; (DHOXY), 7,8-Dihydro-14-hydroxycodeine; (OXYE), Oxycodone ethylenolate; (OXYN), 1-Hydroxyoxycodone and Oxycodone N-oxide. Most of the impurities are found to be below the limit of quantitation (LOQ), except for HOXY and DHOXYN which were unchanged at 0.1%. […] The solid state stability of the micronized oxycodone is monitored for particle size, XRPD, DSC, and microscopy as shown in Table 6."}, "[4]": {"experiment": "Physical stability on storage: DSC onset melt", "experimental": "The micronized lots may also be analyzed by Differential Scanning Calorimetry (DSC). DSC is performed on a TA instrument Q100 using a heating ramp from 25-235° C. at a rate of 5° C./min. […] The sharp endotherm observed is consistent with a crystalline material and the absence of other thermal events proves that there were no polymorph transformations during melting.\nas §2"}, "[5]": {"experiment": "Chemical stability on storage: assay and impurities", "experimental": "as §2"}, "[6]": {"experiment": "Particle size distribution by laser diffraction (Malvern Mastersizer 2000), oxycodone base"}, "[7]": {"conditions": "Table 1 analysis, lot 2 in duplicate"}, "[8]": {"conditions": "additional laser diffraction analysis, Table 3"}}, "data": [{"smiles": "COc1ccc2c3c1O[C@H]1C(=O)CC[C@@]4(O)[C@@H](C2)N(C)CC[C@]314", "note": "[Lot 1, oxycodone]", "values": [{"measurement": "Particle size (Dv90)", "setting": "[1]; 25° C./60% RH, 3 months", "value": 6, "unit": "μ"}, {"measurement": "Particle size (Dv90)", "setting": "[1]; 40° C./75% RH, 3 months", "value": 11, "unit": "μ"}, {"measurement": "Particle size (Dv90)", "setting": "[1]; Time 0", "value": 4, "unit": "μ"}, {"measurement": "% ≦ 1μ", "setting": "[2]", "value": 30.5, "unit": "%"}, {"measurement": "% ≦ 5μ", "setting": "[2]", "value": 92.7, "unit": "%"}, {"measurement": "% ≦ 10μ", "setting": "[2]", "value": 99.5, "unit": "%"}, {"measurement": "Microscopy, ≦10 μ", "setting": "[3]; 25° C./60% RH, 3 mo", "value": 98.4, "unit": "%"}, {"measurement": "Microscopy, ≦10 μ", "setting": "[3]; 40° C./75% RH, 3 mo", "value": 98.2, "unit": "%"}, {"measurement": "Microscopy, ≦10 μ", "setting": "[3]; Time 0", "value": 99.5, "unit": "%"}, {"measurement": "DSC Onset Melt", "setting": "[4]; 25° C./60% RH, 3 mo", "value": 221.8, "unit": "°C"}, {"measurement": "DSC Onset Melt", "setting": "[4]; 40° C./75% RH, 3 mo", "value": 221.9, "unit": "°C"}, {"measurement": "DSC Onset Melt", "setting": "[4]; Time 0", "value": 222.0, "unit": "°C"}, {"measurement": "1-HydroxyOXY", "setting": "[5]; 5° C./60% RH, 1 mo (Table 4)", "value": "<LOQ"}, {"measurement": "1-HydroxyOXY", "setting": "[5]; 5° C./60% RH, 3 mo (Table 4)", "value": "<LOQ"}, {"measurement": "Assay", "setting": "[5]; 25° C./60% RH, 1 mo", "value": 98.9, "unit": "%"}, {"measurement": "DHOXY (7,8-Dihydro-14-hydroxycodeine)", "setting": "[5]; 25° C./60% RH, 1 mo", "value": "<LOQ"}, {"measurement": "DHOXYN (7,8-Dihydro-8,14-Dihydroxycodeinone)", "setting": "[5]; 25° C./60% RH, 1 mo", "value": 0.10, "unit": "%"}, {"measurement": "HOXY (14-Hydroxycodeinone)", "setting": "[5]; 25° C./60% RH, 1 mo", "value": 0.08, "unit": "%"}, {"measurement": "OXYE (Oxycodone ethylenolate)", "setting": "[5]; 25° C./60% RH, 1 mo", "value": "<LOQ"}, {"measurement": "OXYN", "setting": "[5]; 25° C./60% RH, 1 mo", "value": "<LOQ"}, {"measurement": "Other (impurities; Table 5: >0.05%)", "setting": "[5]; 25° C./60% RH, 1 mo", "value": "<LOQ"}, {"measurement": "Total impurities", "setting": "[5]; 25° C./60% RH, 1 mo", "value": 0.18, "unit": "%"}, {"measurement": "Assay", "setting": "[5]; 25° C./60% RH, 3 mo", "value": 99.9, "unit": "%"}, {"measurement": "DHOXY (7,8-Dihydro-14-hydroxycodeine)", "setting": "[5]; 25° C./60% RH, 3 mo", "value": "<LOQ"}, {"measurement": "DHOXYN (7,8-Dihydro-8,14-Dihydroxycodeinone)", "setting": "[5]; 25° C./60% RH, 3 mo", "value": 0.10, "unit": "%"}, {"measurement": "HOXY (14-Hydroxycodeinone)", "setting": "[5]; 25° C./60% RH, 3 mo", "value": 0.08, "unit": "%"}, {"measurement": "OXYE (Oxycodone ethylenolate)", "setting": "[5]; 25° C./60% RH, 3 mo", "value": "<LOQ"}, {"measurement": "OXYN", "setting": "[5]; 25° C./60% RH, 3 mo", "value": "<LOQ"}, {"measurement": "Other (impurities; Table 5: >0.05%)", "setting": "[5]; 25° C./60% RH, 3 mo", "value": "<LOQ"}, {"measurement": "Total impurities", "setting": "[5]; 25° C./60% RH, 3 mo", "value": 0.18, "unit": "%"}, {"measurement": "1-HydroxyOXY", "setting": "[5]; 40° C./75% RH, 1 mo", "value": "<LOQ"}, {"measurement": "Assay", "setting": "[5]; 40° C./75% RH, 1 mo", "value": 100.0, "unit": "%"}, {"measurement": "DHOXY (7,8-Dihydro-14-hydroxycodeine)", "setting": "[5]; 40° C./75% RH, 1 mo", "value": "<LOQ"}, {"measurement": "DHOXYN (7,8-Dihydro-8,14-Dihydroxycodeinone)", "setting": "[5]; 40° C./75% RH, 1 mo", "value": 0.10, "unit": "%"}, {"measurement": "HOXY (14-Hydroxycodeinone)", "setting": "[5]; 40° C./75% RH, 1 mo", "value": 0.08, "unit": "%"}, {"measurement": "OXYE (Oxycodone ethylenolate)", "setting": "[5]; 40° C./75% RH, 1 mo", "value": "<LOQ"}, {"measurement": "OXYN", "setting": "[5]; 40° C./75% RH, 1 mo", "value": "<LOQ"}, {"measurement": "Other (impurities; Table 5: >0.05%)", "setting": "[5]; 40° C./75% RH, 1 mo", "value": "<LOQ"}, {"measurement": "Total impurities", "setting": "[5]; 40° C./75% RH, 1 mo", "value": 0.18, "unit": "%"}, {"measurement": "1-HydroxyOXY", "setting": "[5]; 40° C./75% RH, 3 mo", "value": "<LOQ"}, {"measurement": "Assay", "setting": "[5]; 40° C./75% RH, 3 mo", "value": 99.5, "unit": "%"}, {"measurement": "DHOXY (7,8-Dihydro-14-hydroxycodeine)", "setting": "[5]; 40° C./75% RH, 3 mo", "value": "<LOQ"}, {"measurement": "DHOXYN (7,8-Dihydro-8,14-Dihydroxycodeinone)", "setting": "[5]; 40° C./75% RH, 3 mo", "value": 0.10, "unit": "%"}, {"measurement": "HOXY (14-Hydroxycodeinone)", "setting": "[5]; 40° C./75% RH, 3 mo", "value": 0.08, "unit": "%"}, {"measurement": "OXYE (Oxycodone ethylenolate)", "setting": "[5]; 40° C./75% RH, 3 mo", "value": "<LOQ"}, {"measurement": "OXYN", "setting": "[5]; 40° C./75% RH, 3 mo", "value": "<LOQ"}, {"measurement": "Other (impurities; Table 5: >0.05%)", "setting": "[5]; 40° C./75% RH, 3 mo", "value": "<LOQ"}, {"measurement": "Total impurities", "setting": "[5]; 40° C./75% RH, 3 mo", "value": 0.18, "unit": "%"}, {"measurement": "1-HydroxyOXY", "setting": "[5]; Time 0", "value": "<LOQ"}, {"measurement": "Assay", "setting": "[5]; Time 0", "value": 99.3, "unit": "%"}, {"measurement": "DHOXY (7,8-Dihydro-14-hydroxycodeine)", "setting": "[5]; Time 0", "value": "<LOQ"}, {"measurement": "DHOXYN (7,8-Dihydro-8,14-Dihydroxycodeinone)", "setting": "[5]; Time 0", "value": 0.10, "unit": "%"}, {"measurement": "HOXY (14-Hydroxycodeinone)", "setting": "[5]; Time 0", "value": 0.08, "unit": "%"}, {"measurement": "OXYE (Oxycodone ethylenolate)", "setting": "[5]; Time 0", "value": "<LOQ"}, {"measurement": "OXYN", "setting": "[5]; Time 0", "value": "<LOQ"}, {"measurement": "Other (impurities; Table 5: >0.05%)", "setting": "[5]; Time 0", "value": "<LOQ"}, {"measurement": "Total impurities", "setting": "[5]; Time 0", "value": 0.18, "unit": "%"}, {"measurement": "Particle size (Dv10)", "setting": "[6]; [7]", "value": 0.5, "unit": "μ"}, {"measurement": "Particle size (Dv50)", "setting": "[6]; [7]", "value": 1.4, "unit": "μ"}, {"measurement": "Particle size (Dv90)", "setting": "[6]; [7]", "value": 3.0, "unit": "μ"}, {"measurement": "Particle size (Dv10)", "setting": "[6]; [8]", "value": 0.7, "unit": "μ"}, {"measurement": "Particle size (Dv50)", "setting": "[6]; [8]", "value": 2.1, "unit": "μ"}, {"measurement": "Particle size (Dv90)", "setting": "[6]; [8]", "value": 5.1, "unit": "μ"}]}]}
